Test results taken from US6703207B2, “Method of screening substances with a glycidyl methacrylate covered styrene-glycidyl methacrylate polymer” (priority 1996, dated 2004).
Values belong to the molecule of their own block, whether it stands above or below them.

Assays:
[1] = system: protein with a molecular weight of about 170 kDa; test: Isolation and competition with DQ2511-immobilized particles, lysate of rat DRG cell; format: binding; conditions: concentrated crude lysate of rat DRG cell
Experimental: Microspheres and the concentrated crude lysate of rat DRG cell were mixed and centrifuged to separate substances binding to DQ2511 which was immobilized on particles from the mixture. The procedures of binding, washing and detection of protein were performed as described above. […] In the above procedure, about 10 ng of 170 kDa DQ2511-binding protein was obtained from 1 mg of the DQ2511-immobilized SG-EGDE particles.

[2] = system: protein with a molecular weight of about 110 kDa; test: Isolation and competition with DQ2511-immobilized particles, HeLa cytoplasmic fraction; format: binding; conditions: 1.0 M KCl eluate
Experimental: To these washed DQ2511-not-immobilized SG-EGDE particles and DQ2511-immobilized-SG-EGDE particles, 1 ml of the diluted cytoplasmic fraction was added and mixed. […] The wash solution and eluate solutions were stored at −80° C.

[3] = system: protein with a molecular weight of about 30 kDa; test: Isolation and competition with H-9-immobilized SG-EGDE particles, HeLa cell nuclear extracts; format: binding; conditions: for elution of the 30 kDa protein from H-9-immobilized particles by free drug: elution with 3 mM drug; for yield of the 30 kDa protein in competition experiment: free drug added simultaneously
Experimental: HeLa cell nuclear extracts (NE) were prepared according to the method as described previously (Dignam, J. D., Lebovitz, R. M. and Roeder, R. G. (1983). Accurate transcription by RNA pol II in a soluble extracts from isolated mammalian nucleic. Nucleic Acids Res 11. 1475-1489).

[4] = biological target: recombinant protein of Ref-1 (Homo sapiens, UniProt P27695); test: Binding of recombinant Ref-1 to E3330-immobilized particles
Chain of recombinant protein of Ref-1 (P27695 whole entry, the tested form may be a part): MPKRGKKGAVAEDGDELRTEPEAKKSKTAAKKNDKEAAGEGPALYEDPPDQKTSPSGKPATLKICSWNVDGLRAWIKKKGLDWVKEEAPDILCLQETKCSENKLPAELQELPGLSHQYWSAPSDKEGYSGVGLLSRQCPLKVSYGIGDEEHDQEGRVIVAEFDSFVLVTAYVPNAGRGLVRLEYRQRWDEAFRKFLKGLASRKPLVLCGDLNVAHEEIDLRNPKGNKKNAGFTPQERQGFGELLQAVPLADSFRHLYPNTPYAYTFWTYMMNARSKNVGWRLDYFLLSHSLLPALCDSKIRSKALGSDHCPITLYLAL

[5] = biological target: T1, Ref-1 amino acid sequence 72 a.a. to 88 a.a. (Homo sapiens, UniProt P27695); test: Binding of Ref-1 fragment 72 a.a. to 88 a.a. to E3330-immobilized particles
T1 construct: made in house

[6] = biological target: T2, Ref-1 acting on p50/p50 homo-dimer or p65/p50 hetero-dimer (Homo sapiens, UniProt P27695); test: Gel-shift assay with recombinant p65 and p50 subunits; format: biochemical
T2 construct: His6 (pET14b) (N); made in house; p50 and p65: baculovirus expression system
T2 sequence (P27695 whole entry): as the sequence (P27695 whole entry, the tested form may be a part) above

[7] = biological target: T3, Ref-1 (Homo sapiens, UniProt P27695); test: AP nuclease activity of recombinant Ref-1 on AP plasmid DNA; format: biochemical; conditions: supercoiled AP plasmid DNA to open circular
T3 construct: His6 (pET14b) (N); made in house
T3 sequence (P27695 whole entry): as the sequence (P27695 whole entry, the tested form may be a part) above
Experimental: First, concerning AP nuclease activity, the plasmid pBluescript SK+DNA (50 μg) was treated with 50 mM sodium citrate (pH 3.5) at 60° C. for 15 minutes, followed by dialysis in 50 mM Tris-HCl (pH 7.4) at 4° C. for about 24 hours.

[8] = system: NF-κB; test: Transfection of NF-κB-regulated luciferase plasmid into Jurkat cells; format: cell-based; conditions: luciferase genes regulated by NF-κB
Excerpt: The functions of NH2-E3330 were compared with those of E3330 with respect to transcriptional activation abilities of NF-κB.

[9] = biological target: T4, Ref-1 redox activity on NF-κB (Homo sapiens, UniProt P27695); test: Gel-shift assay of NF-κB DNA binding, NF-κB partially purified from Jurkat cells; format: biochemical
T4 construct: His6 (pET14b) (N); made in house; NF-κB: partially purified from Jurkat cells
T4 sequence (P27695 whole entry): as the sequence (P27695 whole entry, the tested form may be a part) above
Experimental: Prior to the conduction of the investigation, there are some considerations. […] There are two cases; one is an oxidized condition where these cystine residues are bound to each other through an S-S bond; and the other one is a reduced condition where they are individually existing with an SH-group. Therefore, NF-κB was treated with dithiothreitol (DTT) that is known as a reductant to make the state of NF-κB to be reduction.

[10] = system: proteins with a molecular weight of about 60, 38, and 27 kDa; test: Isolation and competition with E3330-immobilized SG-EGDE particles, Jurkat nuclear extract; format: binding; conditions: 1M KCl eluate
Experimental: From the purification using P.1, there was not observed any specific protein band specifically eluted from E3330-immobilized particles.
The identification of the specific proteins were conducted by electrophoresis using SDS-PAGE.

[11] = Solubility in water; format: physicochemical
[12] = biological target: protein with a molecular weight of about 38 kDa (Ref-1) (Homo sapiens, UniProt P27695); test: Isolation and competitive binding-inhibition with E3330-immobilized SG-EGDE particles, Jurkat cytoplasmic P.5 fraction
Chain of protein with a molecular weight of about 38 kDa (Ref-1) (P27695 whole entry): as the sequence (P27695 whole entry, the tested form may be a part) above

[13] = biological target: T3, Ref-1; test: Far Western method using 14C-labeled E3330; format: binding

protein band not observed in reference control (specific binding) [2]: specifically binding to DQ2511
SMILES: CNC(=O)c1cccc(NCC(=O)NCCc2ccc(OC)c(OC)c2)c1 [DQ2511]
protein obtained from immobilized particles (binding ability) [1]: possessing DQ2511-binding ability

SMILES: CNCCNS(=O)(=O)c1cccc2cnccc12 [H-8]
elution of the 30 kDa protein from H-9-immobilized particles by free drug [3]: same protein band was obtained
yield of the 30 kDa protein in competition experiment [3]: lower yield

SMILES: NCCNS(=O)(=O)c1cccc2cnccc12 [H-9]
protein band not observed in reference control (specific binding) ([3]; HeLa nuclear extract, SDS-PAGE silver staining): specifically binding to H-9
elution of the 30 kDa protein from H-9-immobilized particles by free drug [3]: same protein band was obtained
yield of the 30 kDa protein in competition experiment [3]: lower yield

binding of recombinant Ref-1 to immobilized drug [4]: specifically bound to E3330
enhancement of DNA-binding ability of p50/p50 homo-dimer or p65/p50 hetero-dimer by Ref-1 [6]: reduced
AP nuclease activity of Ref-1 [7]: not inhibited
enhancement of the DNA-binding activity of NF-κB by Ref-1 [9]: reduced
increase in the DNA-binding activity of NF-κB by DTT [9]: did not inhibit
protein bands not observed in reference control (specific binding) [10]: specifically binding to E3330
solubility in water [11]: insoluble in water
protein band not observed in reference control (specific binding) ([12]; P.5 fraction, 1 M KCl eluate, SDS-PAGE silver staining): specifically binding to E3330
yield of the about 38 kDa protein in competitive binding-inhibitory experiment ([12]; free E3330 at the same moles as immobilized NH2-E3330): lowered
binding in Far Western method [13]: bound to Ref-1
SMILES: CCCCCCCCC/C(=C\C1=C(C)C(=O)C(OC)=C(OC)C1=O)C(=O)O [E3330]
binding of recombinant protein possessing only 72 a.a. to 88 a.a. of Ref-1 [5]: confirmation of its binding ability against E3330
transcriptional activation abilities of NF-κB [8]: reduced
